The values that follow come from patent US7312206B2, “Sterol derivatives, liposomes comprising sterol derivatives and method for loading liposomes with active substances” (Novosom AG, priority 2001, dated 2007).

For one data set, the system named is HeLa cells. The experiment in a line: Cytotoxicity, MTT test. The class given is cell-based. The protocol: The toxic effect of the substances was investigated using the MTT test. To this end, HeLa cells were seeded at a density of 2×10^4 cells per cavity of a 96-well titer plate and cultured for two days. Liposomes of varying composition (see Table) were added to the cells at a concentration of 0.5 mM and incubated with these cells for 24 hours. Subsequently, the MTT test was performed.

Data set [1] is described as follows: Chelating of metal ions (zeta potential of liposomes). The class given is physicochemical. To be noted: compound in the liposome membrane. Here is the method: Liposomes are produced as in Example 4. 40 μl of these liposomes are suspended in 7 ml of buffer (10 mM potassium acetate, 10 mM HEPES, pH 4.2 or pH 7.5). Subsequently, the metal ions are added with the concentrations as indicated, and the zeta potential of the liposomes is measured.

In the case of `CC(C)CCC[C@@H](C)[C@H]1CC[C@H]2[C@@H]3CC=C4C[C@@H](OC(=O)NCCN(C)C)CC[C@]4(C)[C@H]3CC[C@]12C` [DC-Chol, N,N-Dimethyl (2-aminoethyl) carbamoylcholesterol], the “toxic effect in the MTT test (in words)” value in the data set on HeLa cells is “significant cytotoxic effect”.
In the case of `CCCCCCCC/C=C\CCCCCCCC(=O)OCC(C[N+](C)(C)C)OC(=O)CCCCCCC/C=C\CCCCCCCC` (stereo not shown) [DOTAP], the “toxic effect in the MTT test (in words)” value in the data set with HeLa cells is reported as “significant cytotoxic effect”.
In the case of “Histaminylethaneamine-cholesterol hemisuccinate [His-Chol]”, the “chelating of metal ions by liposomes including the compound (in words)” value in data set [1] is reported as “capable of chelating metal ions”. Also, in the data set with HeLa cells, the “toxic effect in the MTT test (in words)” value is reported as “lesser toxic effects”.
